Active and inactive are the calls of the source. The calls are words filed in the database; no cut-off is given here.
Key:
Rattus norvegicus [1] = experiment: Hypotensive activity in normotensive anesthetized Wistar rat assessed as systolic blood pressure at 0.5 mg/kg, iv measured 30 mins post dose (reference value: 107.4 to 148.3 mmHg); type: functional
Rattus norvegicus [2] = experiment: Hypotensive activity in normotensive anesthetized Wistar rat assessed as diastolic blood pressure at 0.5 mg/kg, iv measured 30 mins post dose (reference value: 81.6 to 115.2 mmHg); type: functional
Rattus norvegicus [3] = experiment: Hypotensive activity in normotensive anesthetized Wistar rat assessed as systolic blood pressure at 0.5 mg/kg, iv measured 5 mins post dose (reference value: 107.4 to 148.3 mmHg); type: functional
Rattus norvegicus [4] = experiment: Hypotensive activity in normotensive anesthetized Wistar rat assessed as diastolic blood pressure at 0.5 mg/kg, iv measured 10 mins post dose (reference value: 81.6 to 115.2 mmHg); type: functional
Rattus norvegicus [5] = experiment: Hypotensive activity in normotensive anesthetized Wistar rat assessed as systolic blood pressure at 0.5 mg/kg, iv measured 60 mins post dose (reference value: 107.4 to 148.3 mmHg); type: functional
Rattus norvegicus [6] = experiment: Hypotensive activity in normotensive anesthetized Wistar rat assessed as diastolic blood pressure at 0.5 mg/kg, iv measured 60 mins post dose (reference value: 81.6 to 115.2 mmHg); type: functional
[7] = Antidepressant-like activity in albino Swiss (CD-1) mouse assessed as immobility time at 2.5 mg/kg, ip administered 30 mins prior to test measured for last 4 mins of 6 mins observation by forced swim test (reference value: 178.3 +/- 12.3 sec); type: functional, organism-based
Mus musculus = experiment: Toxicity in albino Swiss (CD-1) mouse assessed as effect on spontaneous locomotor activity by measuring number of crossings at 10 mg/kg, ip administered 30 mins prior to test measured for last 4 mins of 6 mins observation (reference value: 191.5 to 225.4); type: organism-based; details: in vivo
Rattus norvegicus [8] = experiment: Inhibition of methoxamine-induced pressor response in normotensive Wistar rat at 1 mg/kg, iv measured 5 mins post dose; type: functional, organism-based
Rattus norvegicus [9] = experiment: Hypotensive activity in normotensive anesthetized Wistar rat assessed as systolic blood pressure at 0.1 mg/kg, iv measured 60 mins post dose (reference value: 107.4 to 148.3 mmHg); type: functional
Rattus norvegicus [10] = experiment: Hypotensive activity in normotensive anesthetized Wistar rat assessed as diastolic blood pressure at 0.1 mg/kg, iv measured 5 mins post dose (reference value: 81.6 to 115.2 mmHg); type: functional
Rattus norvegicus [11] = experiment: Hypotensive activity in normotensive anesthetized Wistar rat assessed as systolic blood pressure at 0.1 mg/kg, iv measured 10 mins post dose (reference value: 107.4 to 148.3 mmHg); type: functional
Rattus norvegicus [12] = experiment: Hypotensive activity in normotensive anesthetized Wistar rat assessed as diastolic blood pressure at 0.1 mg/kg, iv measured 60 mins post dose (reference value: 81.6 to 115.2 mmHg); type: functional
Rattus norvegicus [13] = experiment: Hypotensive activity in normotensive anesthetized Wistar rat assessed as diastolic blood pressure at 0.1 mg/kg, iv measured 20 mins post dose (reference value: 81.6 to 115.2 mmHg); type: functional
Rattus norvegicus [14] = experiment: Inhibition of adrenaline-induced pressor response in normotensive Wistar rat at 1 mg/kg, iv measured 5 mins post dose; type: functional, organism-based
Rattus norvegicus [15] = experiment: Hypotensive activity in normotensive anesthetized Wistar rat assessed as diastolic blood pressure at 0.1 mg/kg, iv measured 30 mins post dose (reference value: 81.6 to 115.2 mmHg); type: functional
Rattus norvegicus [16] = experiment: Hypotensive activity in normotensive anesthetized Wistar rat assessed as systolic blood pressure at 0.1 mg/kg, iv measured 5 mins post dose (reference value: 107.4 to 148.3 mmHg); type: functional
Rattus norvegicus [17] = experiment: Hypotensive activity in normotensive anesthetized Wistar rat assessed as systolic blood pressure at 0.1 mg/kg, iv measured 30 mins post dose (reference value: 107.4 to 148.3 mmHg); type: functional
Rattus norvegicus [18] = experiment: Hypotensive activity in normotensive anesthetized Wistar rat assessed as diastolic blood pressure at 0.1 mg/kg, iv measured 10 mins post dose (reference value: 81.6 to 115.2 mmHg); type: functional
Rattus norvegicus [19] = experiment: Hypotensive activity in normotensive anesthetized Wistar rat assessed as systolic blood pressure at 0.1 mg/kg, iv measured 20 mins post dose (reference value: 107.4 to 148.3 mmHg); type: functional

| Structure (SMILES) | Activity (Rattus norvegicus [1]) [mmHg] | Activity (Rattus norvegicus [2]) [mmHg] | Activity (Rattus norvegicus [3]) [mmHg] | Activity (Rattus norvegicus [4]) [mmHg] | Activity (Rattus norvegicus [5]) [mmHg] | Activity (Rattus norvegicus [6]) [mmHg] | TIME [7] [h] | Activity (Mus musculus) | inhibition (Rattus norvegicus [8]) | Activity (Rattus norvegicus [9]) [mmHg] | Activity (Rattus norvegicus [10]) [mmHg] | Activity (Rattus norvegicus [11]) [mmHg] | Activity (Rattus norvegicus [12]) [mmHg] | Activity (Rattus norvegicus [13]) [mmHg] | inhibition (Rattus norvegicus [14]) | Activity (Rattus norvegicus [15]) [mmHg] | Activity (Rattus norvegicus [16]) [mmHg] | Activity (Rattus norvegicus [17]) [mmHg] | Activity (Rattus norvegicus [18]) [mmHg] | Activity (Rattus norvegicus [19]) [mmHg] |
| --- | --- | --- | --- | --- | --- | --- | --- | --- | --- | --- | --- | --- | --- | --- | --- | --- | --- | --- | --- | --- |
| Cc1cccc(Cl)c1OCCCCN1CCN(c2ccccc2)CC1.Cl.Cl | 131.5 | 101.5 | 135 | 101 | 130.8 | 97 | – | – | – | – | – | – | – | – | – | – | – | – | – | – |
| COc1ccccc1N1CCN(CCOCCOc2cccc(C)c2C)CC1.Cl.Cl | – | – | – | – | – | – | 0.0447 | 190 | – | – | – | – | – | – | – | – | – | – | – | – |
| COc1ccccc1N1CCN(CCCCOc2c(C)cccc2C)CC1.Cl | 119.3 | 98.8 | 124.2 | 100.8 | 115.3 | 94.3 | – | – | Active | 127.7 | 112.7 | 138.3 | 101.3 | 104 | Active | 103 | 142.7 | 130.3 | 112.7 | 131.7 |

— ChEMBL document CHEMBL3860091, “Synthesis and activity of newly designed aroxyalkyl or aroxyethoxyethyl derivatives of piperazine on the cardiovascular and the central nervous systems” (Bioorg Med Chem Lett, 2016)
